Here are results for 5 compounds from patent US8546395B2, “6-cycloamino-3-(1H-pyrrolo[2,3-b]pyridin-4-yl)imidazo[1,2-b]pyridazine derivatives, preparation thereof and therapeutic use thereof” (Sanofi, priority 2008, dated 2013).

The test system of data set [1] is Mper1-luc Rat-1 (P2C4) fibroblasts. Kind of data set: Circadian cell assay (mPer1-luciferase reporter, period prolongation). As to conditions: effective concentration that induced a 1-hour prolongation of the circadian period, interpolated from hyperbolic curve. It is filed as cell-based. On the procedure:
Experimental Protocols for Circadian Cell Assay
Mper1-luc Rat-1 (P2C4) fibroblast cultures were prepared by dividing the cultures every 3-4 days (approximately 10-20% of confluence) on 150 cm^2 degassed polystyrene tissue culture flasks (Falcon® #35-5001) and maintained in growth medium [EMEM (Celigro #10-010-CV); 10% foetal bovine serum (FBS; Gibco #16000-044); and 50 I.U./ml of penicillin-streptomycin (Celigro #30-001-CI)] at 37° C. and under 5% CO2.
Cells obtained from Rat-1 fibroblast cultures at 30-50% of confluence as described above were co-transfected with vectors containing the selection marker for resistance to zeocin for a stable transfection and a luciferase reporter gene controlled by the mPer-1 promoter. After 24 to 48 hours, the cultures were divided on 96-well plates and maintained in growth medium supplemented with 50-100 μg/ml of zeocin (Invitrogen® #45-0430) for 10-14 days. The zeocin-resistant stable transfectants were evaluated for the expression of the reporter by adding 100 μM luciferin (Promega® #E1603®) to the growth medium and by assaying the luciferase activity on a TopCount scintillation counter (Packard Model #C384V00). The Rat-1 cell clones expressing both zeocin resistance and lucerifase activity controlled by mPer1 were serum-shock synchronized with 50% horse serum [HS (Gibco® #16050-122)] and the activity of the circadian reporter was evaluated. The P2C4 clone of Mper1-luc Rat-1 fibroblasts was selected to test the compound. Mper1-luc Rat-1 ([…]) fibroblasts at 40-50% of confluence, obtained according to the protocol described above, were plated out onto 96-well opaque tissue culture plates (Perkin Elmer® #6005680). […]
The period analysis was performed either by determining the interval between the relative light emission minima over several days or by Fourier transform. […] The data were analysed by adjusting a hyperbolic curve to the data expressed as change of period (y-axis) as a function of the concentration of the test compound (x-axis) in the XLfit™ software and the CE Delta (t+1 h) was interpolated from this curve.

Data set [2] deals with T1, casein kinase 1 epsilon (CK1 epsilon) (Homo sapiens, UniProt P49674).
T1 construct: Invitrogen Corporation (as an alternative)
T1 sequence (P49674 whole entry): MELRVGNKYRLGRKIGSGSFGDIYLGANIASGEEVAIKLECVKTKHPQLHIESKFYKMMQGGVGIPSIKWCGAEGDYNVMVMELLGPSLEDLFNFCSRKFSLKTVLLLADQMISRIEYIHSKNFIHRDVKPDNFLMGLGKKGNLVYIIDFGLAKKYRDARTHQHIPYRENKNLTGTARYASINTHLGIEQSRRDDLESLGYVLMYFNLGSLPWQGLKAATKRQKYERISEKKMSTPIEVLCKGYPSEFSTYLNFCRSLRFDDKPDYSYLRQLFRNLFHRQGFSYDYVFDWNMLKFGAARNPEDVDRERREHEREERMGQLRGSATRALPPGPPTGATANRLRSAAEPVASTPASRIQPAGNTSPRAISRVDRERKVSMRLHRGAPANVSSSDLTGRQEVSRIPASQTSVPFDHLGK
Kind of data set: Filter-plate assay of ATP-33P for CK1 epsilon inhibitors (phosphorylation of casein). Type of data set: biochemical. The settings on record: casein substrate, ATP-33P with 10 μM cold ATP, 2 hours at ambient temperature. As for the experimental part: The capacity of the compounds of the invention to inhibit the phosphorylation of casein by casein kinase 1 epsilon and delta may be evaluated according to the procedure described in US 2005/0131012.
Filter-Plate Assay of ATP-^33P for the Screening of CK1 Epsilon Inhibitors:
The effect of the compounds on inhibition of the phosphorylation of casein by the enzyme casein kinase 1 epsilon (CK1 epsilon) is measured, using a casein assay with filtration of ATP-^33P in vitro.
Casein kinase 1 epsilon (0.58 mg/ml) is obtained via fermentation and purification processes performed according to methods that are well known to those skilled in the art, or may also be obtained from Invitrogen Corporation™ (human CK1 epsilon).
The compounds are tested at five different concentrations so as to generate IC50 values, i.e. the concentration at which a compound is capable of inhibiting the enzymatic activity by 50%, or alternatively the percentage of inhibition at a concentration of 10 micromolar.
“U”-bottomed Falcon plates are prepared by placing 5 μL of solutions of the compounds according to the invention at concentrations of 10, 1, 0.1, 0.01 or 0.001 μM in various wells. The solutions of the compounds according to the invention at these various concentrations are prepared by diluting in a test buffer (50 mM Tris, pH 7.5, […], 2 mM DTT and 1 mM EGTA) a stock solution in DMSO at a concentration of 10 mM. Next, 5 μL of dephosphorylated casein are added to a final concentration of 0.2 μg/μL, 20 μl of CK1 epsilon to a final concentration of 3 ng/μl, and 20 μl of ATP-^33P to a final concentration of 0.02 μCi/μl mixed with cold ATP (10 μM final—approximately 2×10^6 CPM per well). The final total test volume per well is equal to 50 μl.
The “U”-bottomed Falcon® test plate mentioned above is vortexed, and then incubated at ambient temperature for 2 hours. After 2 hours, the reaction is stopped by adding an ice-cold solution of 65 μl of ATP (2 mM) prepared in test buffer.
100 μl of the reaction mixture are then transferred from the “U”-bottomed Falcon® plate into Millipore® MAPH filter plates, preimpregnated with 25 μl of ice-cold 100% TCA. […]
The plates are left to dry overnight at ambient temperature. […] The radiation emitted by each well is then measured for 2 minutes in a Packard® Topcount NXT scintillation counter, in which the values of CPM/well are measured.
The percentage inhibition of the capacity of the enzyme to phosphorylate the substrate (casein) is determined for each concentration of compound tested. These inhibition data expressed as percentages are used to calculate the IC50 value for each compound compared with the controls.
The kinetic studies determined the KM value for ATP as being 21 μM in this test system.

The target in a further data set is T2, human CK1 delta (Homo sapiens, UniProt P48730).
T2 construct: purchased Invitrogen Corporation PV3665
T2 sequence (P48730 whole entry): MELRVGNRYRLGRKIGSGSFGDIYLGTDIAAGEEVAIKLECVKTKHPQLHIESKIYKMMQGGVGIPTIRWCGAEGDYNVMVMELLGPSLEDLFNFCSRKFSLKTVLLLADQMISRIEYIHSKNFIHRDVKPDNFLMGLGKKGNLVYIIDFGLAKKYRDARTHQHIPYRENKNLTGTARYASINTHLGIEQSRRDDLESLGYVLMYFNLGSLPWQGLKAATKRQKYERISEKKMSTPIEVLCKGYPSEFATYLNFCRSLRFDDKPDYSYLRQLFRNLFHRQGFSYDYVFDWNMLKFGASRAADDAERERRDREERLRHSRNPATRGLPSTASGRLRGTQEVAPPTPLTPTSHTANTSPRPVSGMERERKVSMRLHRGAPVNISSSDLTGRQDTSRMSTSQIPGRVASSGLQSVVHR
Kind of data set: FRET fluorescence test (Z'Lyte kinase assay Kit), peptide substrate SER/THR 11. It is filed as biochemical. As to conditions: peptide substrate 2 μM, ATP at 4 times the KM. From the text:
The capacity of the compounds of the invention to inhibit the phosphorylation of casein by casein kinase 1 epsilon and delta may be evaluated using a FRET (“Fluorescence Resonance Energy Transfer) fluorescence test with the aid of the “Z'Lyte™ kinase assay Kit” (reference PV3670; Invitrogen Corporation™) according to the manufacturer's instructions.
The casein kinases 1 used are obtained from Invitrogen Corporation (human CK1 epsilon PV3500 and human CK1 delta PV3665).
A peptide substrate, labelled at both ends with a fluorophor donor group (coumarin) and a fluorophor acceptor group (fluorescein) constituting a FRET system is phosphorylated in the presence of ATP by casein kinase 1 epsilon or delta in the presence of increasing concentrations of compounds of the invention.
The mixture is treated with a site-specific protease that specifically cleaves the peptide substrate to form two fluorescent fragments having a large fluorescence emission ratio.
The fluorescence observed is thus related to the capacity of the products of the invention to inhibit the phosphorylation of the peptide substrate by casein kinase 1 epsilon or casein kinase 1 delta.
The compounds of the invention are dissolved at different concentrations starting with a 10 mM stock solution in DMSO diluted in a buffer containing 50 mM HEPS, pH 7.5, 1 m MEGTA, 0.01% Brij-35, 10 mM MgCl2 for casein kinase 1 epsilon and supplemented with Trizma Base (50 mM), pH 8.0, and NaN3 (0.01% final) for casein kinase 1 delta.
The phosphorylation of the peptide substrate SER/THR 11 obtained from Invitrogen Corporation™ is performed at a final concentration of 2 μM. The ATP concentration is 4 times the KM, this value being 2 μM for casein kinase 1 epsilon and 4 μM for casein kinase 1 delta.
The emitted fluorescence is measured at wavelengths of 445 and 520 nm (excitation at 400 nm).

A word on the IC50: it is the midpoint of a concentration-inhibition curve. A higher IC50 goes with weaker potency. With `Fc1ccc(-c2nc3ccc(N4CCC5(CCCNC5)CC4)nn3c2-c2ccnc3[nH]ccc23)cc1` [Compound 35, 9-[2-(4-Fluorophenyl)-3-(1H-pyrrolo[2,3-b]pyridin-4-yl)imidazo[1,2-b]pyridazin-6-yl]-2,9-diazaspiro[5.5]undecane], in data set [1], the “CE Delta (t + 1 h)” value was found to be 305 nM. Also, half-maximal inhibition in data set [2] (IC50) was put at 6 nM.
For the compound `Cc1cc(N2C[C@H]3CN(C)C[C@H]3C2)nn2c(-c3ccnc4[nH]ccc34)c(-c3ccc(F)cc3)nc12` [Compound 29, (Cis)-2-(4-fluorophenyl)-8-methyl-6-(5-methyl-hexahydropyrrolo[3,4-c]pyrrol-2(1H)-yl)-3-(1H-pyrrolo[2,3-b]pyridin-4-yl)imidazo[1,2-b]pyridazine], the IC50 against human CK1 delta stood at 5 nM.
The term melting point denotes the temperature, or range, at which the solid turns liquid. As for `CC(C)(O)CN1CCN(c2ccc3nc(-c4ccc(F)cc4)c(-c4ccnc5[nH]ccc45)n3n2)CC1` [Compound 20, 1-{4-[2-(4-Fluorophenyl)-3-(1H-pyrrolo[2,3-b]pyridin-4-yl)imidazo[1,2-b]pyridazin-6-yl]piperazin-1-yl}-2-methylpropan-2-ol], the melting point is 273 to 276 °C. For the same compound, the IC50 at human CK1 delta was 30 to 42 nM.
As for `C[C@@H]1CN(c2ccc3nc(-c4ccc(F)cc4)c(-c4ccnc5[nH]ccc45)n3n2)CCN1` [Compound 6, 2-(4-Fluorophenyl)-6-[(3R)-3-methylpiperazin-1-yl]-3-(1H-pyrrolo[2,3-b]pyridin-4-yl)imidazo[1,2-b]pyridazine], the melting point fell in the range of 285 to 287 °C. Also, in data set [1], the “CE Delta (t + 1 h)” value was 2 to 3 nM. In data set [2], the IC50 is 1 to 2 nM.
In data set [2], `Cc1nc2ccc(N3C[C@@H](C)N[C@@H](C)C3)nn2c1-c1ccnc2[nH]ccc12` [Compound 3, 6-[(cis)-3,5-Dimethylpiperazin-1-yl]-2-methyl-3-(1H-pyrrolo[2,3-b]pyridin-4-yl)-imidazo[1,2-b]pyridazine] registered an IC50 of 303 nM.
